pIC50: −log10 of the molar value.
How the values were obtained:
rat TRPA1 = biological target: T1, rat TRPA1 (Rattus norvegicus, UniProt Q6RI86); assay: 45Calcium uptake assay: inhibition of AITC induced cellular uptake of radioactive calcium, rat TRPA1 expressing CHO cells; format: cell-based; conditions: AITC 10 μM; for inhibition at 10 µM: 10.0 μM compound, read-out: rat TRPA1 Percentage inhibition at 10.0 μM; for inhibition at 1 µM: read-out: rat TRPA1 Percentage inhibition; for pIC50: class symbols
T1 construct: expressed in transfected cells; host or cells: CHO cells (Zeocin selection)
T1 sequence (Q6RI86 whole entry): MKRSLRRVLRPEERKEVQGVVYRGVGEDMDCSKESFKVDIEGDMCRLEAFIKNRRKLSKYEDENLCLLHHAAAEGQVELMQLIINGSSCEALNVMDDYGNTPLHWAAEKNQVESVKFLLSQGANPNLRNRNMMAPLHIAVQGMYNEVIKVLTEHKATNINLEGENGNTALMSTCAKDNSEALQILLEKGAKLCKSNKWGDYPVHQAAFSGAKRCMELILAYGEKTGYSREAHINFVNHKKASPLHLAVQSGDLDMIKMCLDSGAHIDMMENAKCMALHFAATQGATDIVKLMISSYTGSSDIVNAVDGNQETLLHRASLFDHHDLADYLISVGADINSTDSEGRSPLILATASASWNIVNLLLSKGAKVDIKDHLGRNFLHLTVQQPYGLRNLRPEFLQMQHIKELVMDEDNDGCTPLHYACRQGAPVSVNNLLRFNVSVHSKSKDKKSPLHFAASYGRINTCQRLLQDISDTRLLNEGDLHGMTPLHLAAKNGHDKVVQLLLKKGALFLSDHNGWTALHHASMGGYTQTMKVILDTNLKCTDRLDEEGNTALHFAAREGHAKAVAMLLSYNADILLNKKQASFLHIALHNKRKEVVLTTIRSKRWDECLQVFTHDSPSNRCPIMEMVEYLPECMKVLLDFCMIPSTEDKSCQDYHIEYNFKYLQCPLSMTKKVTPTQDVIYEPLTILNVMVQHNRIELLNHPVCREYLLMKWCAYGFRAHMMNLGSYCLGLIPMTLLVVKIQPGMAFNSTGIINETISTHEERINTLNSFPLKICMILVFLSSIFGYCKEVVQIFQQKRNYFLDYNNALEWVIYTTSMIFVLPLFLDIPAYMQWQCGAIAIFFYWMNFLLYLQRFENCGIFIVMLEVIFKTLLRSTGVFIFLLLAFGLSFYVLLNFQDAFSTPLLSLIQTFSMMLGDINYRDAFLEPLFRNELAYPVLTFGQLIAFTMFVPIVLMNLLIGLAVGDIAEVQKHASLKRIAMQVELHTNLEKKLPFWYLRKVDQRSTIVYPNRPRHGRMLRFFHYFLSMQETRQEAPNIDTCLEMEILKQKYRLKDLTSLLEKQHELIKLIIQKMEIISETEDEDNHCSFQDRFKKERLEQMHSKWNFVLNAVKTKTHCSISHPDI
Outline: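 CHO cells expressing rat or human TRPA1 were pre-treated with compound for 10 min, then given AITC (30 μM human, 10 μM rat) plus 5 μCi/ml 45Ca2+ for 3 min; final DMSO 0.5%. Lysate radioactivity was counted by scintillation. IC50 came from nonlinear regression of concentration-response curves as % of maximal response.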

human TRPA1 = biological target: T2, human TRPA1 (Homo sapiens, UniProt O75762); assay: 45Calcium uptake assay: inhibition of AITC induced cellular uptake of radioactive calcium, human TRPA1 expressing CHO cells; format: cell-based; conditions: numeric values, AITC 30 μM
T2 construct: expressed in transfected cells; host or cells: CHO cells (G-418 selection)
T2 sequence (O75762 whole entry): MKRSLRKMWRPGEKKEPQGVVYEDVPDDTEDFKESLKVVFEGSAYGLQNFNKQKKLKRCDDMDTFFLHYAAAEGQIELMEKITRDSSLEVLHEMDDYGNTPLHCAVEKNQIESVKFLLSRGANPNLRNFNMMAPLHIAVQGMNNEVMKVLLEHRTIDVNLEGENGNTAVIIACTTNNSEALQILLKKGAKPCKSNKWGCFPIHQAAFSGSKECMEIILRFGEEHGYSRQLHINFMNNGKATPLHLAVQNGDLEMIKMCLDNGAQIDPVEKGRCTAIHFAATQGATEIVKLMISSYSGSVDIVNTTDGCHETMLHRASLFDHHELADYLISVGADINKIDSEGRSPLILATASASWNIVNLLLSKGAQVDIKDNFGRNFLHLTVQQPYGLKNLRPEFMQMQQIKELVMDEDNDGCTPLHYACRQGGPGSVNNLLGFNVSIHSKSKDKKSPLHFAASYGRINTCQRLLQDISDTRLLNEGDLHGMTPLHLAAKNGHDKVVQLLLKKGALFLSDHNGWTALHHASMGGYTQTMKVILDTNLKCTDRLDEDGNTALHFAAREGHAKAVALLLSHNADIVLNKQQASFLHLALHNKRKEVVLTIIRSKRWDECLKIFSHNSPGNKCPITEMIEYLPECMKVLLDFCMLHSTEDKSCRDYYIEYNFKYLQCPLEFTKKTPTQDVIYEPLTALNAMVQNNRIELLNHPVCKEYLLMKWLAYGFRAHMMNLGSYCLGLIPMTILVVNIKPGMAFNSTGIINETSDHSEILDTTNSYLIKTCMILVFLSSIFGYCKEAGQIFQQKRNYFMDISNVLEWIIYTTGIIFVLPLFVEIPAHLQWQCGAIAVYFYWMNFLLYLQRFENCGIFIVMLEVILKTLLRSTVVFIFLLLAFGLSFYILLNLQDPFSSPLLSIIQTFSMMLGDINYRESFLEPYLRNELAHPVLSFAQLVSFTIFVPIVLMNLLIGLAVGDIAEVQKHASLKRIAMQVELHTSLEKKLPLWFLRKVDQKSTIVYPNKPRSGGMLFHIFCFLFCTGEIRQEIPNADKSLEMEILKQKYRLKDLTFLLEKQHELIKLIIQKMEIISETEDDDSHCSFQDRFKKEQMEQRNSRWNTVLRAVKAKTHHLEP
Outline: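 CHO cells expressing TRPA1 were preincubated 10 min with compound (0.5% DMSO final), then given AITC (30 μM human, 10 μM rat) plus 5 μCi/ml 45Ca2+ for 3 min. Lysate radioactivity measured by scintillation; IC50 obtained by nonlinear regression of % maximal response without antagonist.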

inhibition at 10 µM (rat TRPA1) | inhibition at 1 µM (rat TRPA1) | pIC50 (rat TRPA1) | pIC50 (human TRPA1) | SMILES
– | – | > 7.30 | 8.34 | Cc1oc2c(c1CC(=O)Nc1nc(-c3ccc(F)c(C(F)(F)F)c3F)cs1)c(=O)n(C)c(=O)n2C [Example 83, N1-{4-[2,4-Difluoro-3-(trifluoromethyl)phenyl]-1,3-thiazol-2-yl}-2-(1,3,6-trimethyl-2,4-dioxo-1,2,3,4-tetrahydrofuro[2,3-d]pyrimidin-5-yl)acetamide]
– | – | > 7.30 | 8.38 | Cc1oc2c(c1CC(=O)Nc1nc(-c3cc(F)c(C(F)(F)F)c(F)c3)cs1)c(=O)n(C)c(=O)n2C [Example 84, N1-{4-[3,5-Difluoro-4-(trifluoromethyl)phenyl]-1,3-thiazol-2-yl}-2-(1,3,6-trimethyl-2,4-dioxo-1,2,3,4-tetrahydrofuro[2,3-d]pyrimidin-5-yl)acetamide]
100% | 100% | – | 8.18 | Cc1oc2c(c1CC(=O)Nc1nc(-c3cc(F)c(OC(F)F)c(F)c3)cs1)c(=O)n(C)c(=O)n2C [Example 85, N1-{4-[3,5-Difluoro-4-(difluoromethoxy)phenyl]-1,3-thiazol-2-yl}-2-(1,3,6-trimethyl-2,4-dioxo-1,2,3,4-tetrahydrofuro[2,3-d]pyrimidin-5-yl)acetamide]
95.4% | 99.1% | > 7.30 | 8.39 | Cc1oc2c(c1CC(=O)Nc1nc(-c3cc(Cl)c(OC(F)F)c(Cl)c3)cs1)c(=O)n(C)c(=O)n2C [Example 86, N1-{4-[3,5-Dichloro-4-(difluoromethoxy)phenyl]-1,3-thiazol-2-yl}-2-(1,3,6-trimethyl-2,4-dioxo-1,2,3,4-tetrahydrofuro[2,3-d]pyrimidin-5-yl)acetamide]
– | – | > 7.30 | 8.77 | Cc1oc2c(c1CC(=O)Nc1nc(-c3cc(F)c(OCC(F)(F)F)c(F)c3)cs1)c(=O)n(C)c(=O)n2C [Example 87, N1-{4-[3,5-Difluoro-4-(2,2,2-trifluoroethoxy)phenyl]-1,3-thiazol-2-yl}-2-(1,3,6-trimethyl-2,4-dioxo-1,2,3,4-tetrahydrofuro[2,3-d]pyrimidin-5-yl)acetamide]
100% | 98.3% | – | 8.75 | Cc1oc2c(c1CC(=O)Nc1nc(-c3cc(Cl)c(OCC(F)(F)F)c(Cl)c3)cs1)c(=O)n(C)c(=O)n2C [Example 88, N1-{4-[3,5-Dichloro-4-(2,2,2-trifluoroethoxy)phenyl]-1,3-thiazol-2-yl}-2-(1,3,6-trimethyl-2,4-dioxo-1,2,3,4-tetrahydrofuro[2,3-d]pyrimidin-5-yl)acetamide]
98.8% | – | 7.00 to 7.30 | 8.01 | Cc1oc2c(c1CC(=O)Nc1nc(-c3cc(F)c(OCC4CC4)c(F)c3)cs1)c(=O)n(C)c(=O)n2C [Example 89, N1-{4-[4-(Cyclopropylmethoxy)-3,5-difluorophenyl]-1,3-thiazol-2-yl]-2-(1,3,6-trimethyl-2,4-dioxo-1,2,3,4-tetrahydrofuro[2,3-d]pyrimidin-5-yl)acetamide]
99.5% | 98% | – | 7.85 | Cc1oc2c(c1CC(=O)Nc1nc(-c3ccc(F)c(C(F)(F)F)c3)c(C)s1)c(=O)n(C)c(=O)n2C [Example 90, N1-{4-[4-Fluoro-3-(trifluoromethyl)phenyl]-5-methyl-1,3-thiazol-2-yl}-2-(1,3,6-trimethyl-2,4-dioxo-1,2,3,4-tetrahydrofuro[2,3-d]pyrimidin-5-yl)acetamide]

SMILES | inhibition at 10 µM (rat TRPA1) | inhibition at 1 µM (rat TRPA1) | pIC50 (rat TRPA1) | pIC50 (human TRPA1)
Cc1oc2c(c1CC(=O)Nc1nc(-c3cc(F)c(OCC(C)C)c(F)c3)cs1)c(=O)n(C)c(=O)n2C [Example 81, N1-[4-(3,5-Difluoro-4-isobutoxyphenyl)-1,3-thiazol-2-yl]-2-(1,3,6-trimethyl-2,4-dioxo-1,2,3,4-tetrahydrofuro[2,3-d]pyrimidin-5-yl)acetamide] | 99.2% | 100% | 7.00 to 7.30 | 8.33
Cc1oc2c(c1CC(=O)Nc1nc(-c3cc(Cl)c(OCC(C)C)c(Cl)c3)cs1)c(=O)n(C)c(=O)n2C [Example 82, N1-[4-(3,5-Dichloro-4-isobutoxyphenyl)-1,3-thiazol-2-yl]-2-(1,3,6-trimethyl-2,4-dioxo-1,2,3,4-tetrahydrofuro[2,3-d]pyrimidin-5-yl)acetamide] | 100% | 100% | > 7.30 | 8.48

Reference: patent US20120178766A1, “FUROPYRIMIDINEDIONE DERIVATIVES AS TRPAI MODULATORS” (priority 2009, published 2012)
